According to US8192962B2, “Processes for detecting toxic substances” (Daikin Industries, Ltd., priority 2001, dated 2012):

Tested on: Genes belonging to other category
Assay: DNA chip mRNA expression in yeast, genes belonging to other category (Table 9)
Format: cell-based, Saccharomyces cerevisiae S288C
Method in brief: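 Values are treated/untreated fluorescence ratios from a whole-genome yeast DNA chip hybridized over 12 hours at 65° C with Cy3- or Cy5-labelled cDNA from poly(A) mRNA. Log-phase S288C yeast in YPD at 25° C had received a single toxic chemical for two hours, dosed to slow growth without killing.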

Oc1cc(Cl)c(Cl)cc1Cl [(6), 2,4,5-trichlorophenol]
The level of expressed mRNA in the presence of chemical substance/The level of expressed mRNA in the absence of chemical substance (yeast gene YJL210W): 0.6 | The level of expressed mRNA in the presence of chemical substance/The level of expressed mRNA in the absence of chemical substance (yeast gene YJR004C): 1.2 | The level of expressed mRNA in the presence of chemical substance/The level of expressed mRNA in the absence of chemical substance (yeast gene YJR050W): 1.4 | The level of expressed mRNA in the presence of chemical substance/The level of expressed mRNA in the absence of chemical substance (yeast gene YJR086W): 1.9 | The level of expressed mRNA in the presence of chemical substance/The level of expressed mRNA in the absence of chemical substance (yeast gene YJR091C): 0.8 | The level of expressed mRNA in the presence of chemical substance/The level of expressed mRNA in the absence of chemical substance (yeast gene YJR110W): 0.9 | The level of expressed mRNA in the presence of chemical substance/The level of expressed mRNA in the absence of chemical substance (yeast gene YJR117W): 1.3 | The level of expressed mRNA in the presence of chemical substance/The level of expressed mRNA in the absence of chemical substance (yeast gene YJR119C): 1.4 | The level of expressed mRNA in the presence of chemical substance/The level of expressed mRNA in the absence of chemical substance (yeast gene YJR145C): 0.4 | The level of expressed mRNA in the presence of chemical substance/The level of expressed mRNA in the absence of chemical substance (yeast gene YKL008C): 3.8 | The level of expressed mRNA in the presence of chemical substance/The level of expressed mRNA in the absence of chemical substance (yeast gene YKL013C): 1.9 | The level of expressed mRNA in the presence of chemical substance/The level of expressed mRNA in the absence of chemical substance (yeast gene YKL025C): 0.9 | The level of expressed mRNA in the presence of chemical substance/The level of expressed mRNA in the absence of chemical substance (yeast gene YKL039W): 4.9 | The level of expressed mRNA in the presence of chemical substance/The level of expressed mRNA in the absence of chemical substance (yeast gene YKL041W): 2.2 | The level of expressed mRNA in the presence of chemical substance/The level of expressed mRNA in the absence of chemical substance (yeast gene YKL079W): 0.8 | The level of expressed mRNA in the presence of chemical substance/The level of expressed mRNA in the absence of chemical substance (yeast gene YKL096W): 0.6 | The level of expressed mRNA in the presence of chemical substance/The level of expressed mRNA in the absence of chemical substance (yeast gene YKL139W): 3.5 | The level of expressed mRNA in the presence of chemical substance/The level of expressed mRNA in the absence of chemical substance (yeast gene YKL165C): 0.6 | The level of expressed mRNA in the presence of chemical substance/The level of expressed mRNA in the absence of chemical substance (yeast gene YKL193C): 0.9 | The level of expressed mRNA in the presence of chemical substance/The level of expressed mRNA in the absence of chemical substance (yeast gene YKL196C): 0.9 | The level of expressed mRNA in the presence of chemical substance/The level of expressed mRNA in the absence of chemical substance (yeast gene YKR014C): 2.1 | The level of expressed mRNA in the presence of chemical substance/The level of expressed mRNA in the absence of chemical substance (yeast gene YKR098C): 1.8 | The level of expressed mRNA in the presence of chemical substance/The level of expressed mRNA in the absence of chemical substance (yeast gene YLR120C): 1.9 | The level of expressed mRNA in the presence of chemical substance/The level of expressed mRNA in the absence of chemical substance (yeast gene YLR136C): 1.7 | The level of expressed mRNA in the presence of chemical substance/The level of expressed mRNA in the absence of chemical substance (yeast gene YLR144C): 0.9 | The level of expressed mRNA in the presence of chemical substance/The level of expressed mRNA in the absence of chemical substance (yeast gene YLR178C): 4.2 | The level of expressed mRNA in the presence of chemical substance/The level of expressed mRNA in the absence of chemical substance (yeast gene YLR206W): 0.5 | The level of expressed mRNA in the presence of chemical substance/The level of expressed mRNA in the absence of chemical substance (yeast gene YLR250W): 1.1 | The level of expressed mRNA in the presence of chemical substance/The level of expressed mRNA in the absence of chemical substance (yeast gene YLR266C): 1.0 | The level of expressed mRNA in the presence of chemical substance/The level of expressed mRNA in the absence of chemical substance (yeast gene YLR327C): 5.1 | The level of expressed mRNA in the presence of chemical substance/The level of expressed mRNA in the absence of chemical substance (yeast gene YLR356W): 3.4 | The level of expressed mRNA in the presence of chemical substance/The level of expressed mRNA in the absence of chemical substance (yeast gene YLR360W): 1.4 | The level of expressed mRNA in the presence of chemical substance/The level of expressed mRNA in the absence of chemical substance (yeast gene YLR362W): 0.8 | The level of expressed mRNA in the presence of chemical substance/The level of expressed mRNA in the absence of chemical substance (yeast gene YLR389C): 0.2 | The level of expressed mRNA in the presence of chemical substance/The level of expressed mRNA in the absence of chemical substance (yeast gene YLR391W): 1.5 | The level of expressed mRNA in the presence of chemical substance/The level of expressed mRNA in the absence of chemical substance (yeast gene YLR429W): 0.8 | The level of expressed mRNA in the presence of chemical substance/The level of expressed mRNA in the absence of chemical substance (yeast gene YMR004W): 0.5 | The level of expressed mRNA in the presence of chemical substance/The level of expressed mRNA in the absence of chemical substance (yeast gene YMR094W): 0.5 | The level of expressed mRNA in the presence of chemical substance/The level of expressed mRNA in the absence of chemical substance (yeast gene YMR101C): 0.4 | The level of expressed mRNA in the presence of chemical substance/The level of expressed mRNA in the absence of chemical substance (yeast gene YMR104C): 1.9 | The level of expressed mRNA in the presence of chemical substance/The level of expressed mRNA in the absence of chemical substance (yeast gene YMR219W): 0.8 | The level of expressed mRNA in the presence of chemical substance/The level of expressed mRNA in the absence of chemical substance (yeast gene YMR226C): 2.6 | The level of expressed mRNA in the presence of chemical substance/The level of expressed mRNA in the absence of chemical substance (yeast gene YMR275C): 1.4 | The level of expressed mRNA in the presence of chemical substance/The level of expressed mRNA in the absence of chemical substance (yeast gene YMR276W): 0.8 | The level of expressed mRNA in the presence of chemical substance/The level of expressed mRNA in the absence of chemical substance (yeast gene YMR297W): 1.8 | The level of expressed mRNA in the presence of chemical substance/The level of expressed mRNA in the absence of chemical substance (yeast gene YMR314W): 1.3 | The level of expressed mRNA in the presence of chemical substance/The level of expressed mRNA in the absence of chemical substance (yeast gene YNL006W): 1.0 | The level of expressed mRNA in the presence of chemical substance/The level of expressed mRNA in the absence of chemical substance (yeast gene YNL007C): 0.6 | The level of expressed mRNA in the presence of chemical substance/The level of expressed mRNA in the absence of chemical substance (yeast gene YNL069C): 0.4 | The level of expressed mRNA in the presence of chemical substance/The level of expressed mRNA in the absence of chemical substance (yeast gene YNL093W): 1.6 | The level of expressed mRNA in the presence of chemical substance/The level of expressed mRNA in the absence of chemical substance (yeast gene YNL333W): 1.5 | The level of expressed mRNA in the presence of chemical substance/The level of expressed mRNA in the absence of chemical substance (yeast gene YNR010W): 1.3 | The level of expressed mRNA in the presence of chemical substance/The level of expressed mRNA in the absence of chemical substance (yeast gene YNR069C): 1.7 | The level of expressed mRNA in the presence of chemical substance/The level of expressed mRNA in the absence of chemical substance (yeast gene YOL013C): 1.1 | The level of expressed mRNA in the presence of chemical substance/The level of expressed mRNA in the absence of chemical substance (yeast gene YOL039W): 0.4 | The level of expressed mRNA in the presence of chemical substance/The level of expressed mRNA in the absence of chemical substance (yeast gene YOL120C): 0.3 | The level of expressed mRNA in the presence of chemical substance/The level of expressed mRNA in the absence of chemical substance (yeast gene YOL164W): 1.2 | The level of expressed mRNA in the presence of chemical substance/The level of expressed mRNA in the absence of chemical substance (yeast gene YOR023C): 1.8 | The level of expressed mRNA in the presence of chemical substance/The level of expressed mRNA in the absence of chemical substance (yeast gene YOR036W): 1.7 | The level of expressed mRNA in the presence of chemical substance/The level of expressed mRNA in the absence of chemical substance (yeast gene YOR117W): 1.1 | The level of expressed mRNA in the presence of chemical substance/The level of expressed mRNA in the absence of chemical substance (yeast gene YOR124C): 0.9 | The level of expressed mRNA in the presence of chemical substance/The level of expressed mRNA in the absence of chemical substance (yeast gene YOR132W): 1.6 | The level of expressed mRNA in the presence of chemical substance/The level of expressed mRNA in the absence of chemical substance (yeast gene YOR133W): 0.9 | The level of expressed mRNA in the presence of chemical substance/The level of expressed mRNA in the absence of chemical substance (yeast gene YOR134W): 1.4 | The level of expressed mRNA in the presence of chemical substance/The level of expressed mRNA in the absence of chemical substance (yeast gene YOR157C): 1.2 | The level of expressed mRNA in the presence of chemical substance/The level of expressed mRNA in the absence of chemical substance (yeast gene YOR181W): 0.9 | The level of expressed mRNA in the presence of chemical substance/The level of expressed mRNA in the absence of chemical substance (yeast gene YOR185C): 3.0 | The level of expressed mRNA in the presence of chemical substance/The level of expressed mRNA in the absence of chemical substance (yeast gene YOR198C): 0.9 | The level of expressed mRNA in the presence of chemical substance/The level of expressed mRNA in the absence of chemical substance (yeast gene YOR259C): 0.8 | The level of expressed mRNA in the presence of chemical substance/The level of expressed mRNA in the absence of chemical substance (yeast gene YOR261C): 1.4 | The level of expressed mRNA in the presence of chemical substance/The level of expressed mRNA in the absence of chemical substance (yeast gene YOR288C): 1.0 | The level of expressed mRNA in the presence of chemical substance/The level of expressed mRNA in the absence of chemical substance (yeast gene YOR327C): 1.4 | The level of expressed mRNA in the presence of chemical substance/The level of expressed mRNA in the absence of chemical substance (yeast gene YOR355W): 1.6 | The level of expressed mRNA in the presence of chemical substance/The level of expressed mRNA in the absence of chemical substance (yeast gene YOR362C): 1.4 | The level of expressed mRNA in the presence of chemical substance/The level of expressed mRNA in the absence of chemical substance (yeast gene YOR383C): 6.8 | The level of expressed mRNA in the presence of chemical substance/The level of expressed mRNA in the absence of chemical substance (yeast gene YPL089C): 0.8 | The level of expressed mRNA in the presence of chemical substance/The level of expressed mRNA in the absence of chemical substance (yeast gene YPL109C): 1.2 | The level of expressed mRNA in the presence of chemical substance/The level of expressed mRNA in the absence of chemical substance (yeast gene YPL149W): 0.9 | The level of expressed mRNA in the presence of chemical substance/The level of expressed mRNA in the absence of chemical substance (yeast gene YPL154C): 3.5 | The level of expressed mRNA in the presence of chemical substance/The level of expressed mRNA in the absence of chemical substance (yeast gene YPR028W): 1.4 | The level of expressed mRNA in the presence of chemical substance/The level of expressed mRNA in the absence of chemical substance (yeast gene YPR080W): 1.4 | The level of expressed mRNA in the presence of chemical substance/The level of expressed mRNA in the absence of chemical substance (yeast gene YPR103W): 1.2 | The level of expressed mRNA in the presence of chemical substance/The level of expressed mRNA in the absence of chemical substance (yeast gene YPR108W): 1.5 | The level of expressed mRNA in the presence of chemical substance/The level of expressed mRNA in the absence of chemical substance (yeast gene YPR168W): 0.4
